Measured values published in patent US11597724B2, “Herbicidally active 3-phenylisoxazoline-5-carboxamides of tetrahydro and dihydrofuran carboxylic acids and esters” (Bayer Aktiengesellschaft, priority 2017, dated 2023).

Experiments:
Format in all cases: in vivo
Polygonum convolvulus = experiment: Post-emergence herbicidal activity against POLCO; conditions: dosage 320 g/ha, rated about 3 weeks after treatment; for pest or weed control at 320 g/ha: Fallopia convolvulus, 504 h
Procedure, shortened: (§1)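 Greenhouse weeds in sandy loam were sprayed at the one-leaf stage, 2–3 weeks after sowing, with WP or EC formulations plus 0.5% additive at 600 l/ha water. About 3 weeks later, damage was rated visually against untreated controls, where 100% means plants dead and 0% means like control.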

Stellaria media [1] = experiment: Pre-emergence herbicidal activity against STEME; conditions: dosage 80 g/ha; for pest or weed control at 80 g/ha: Stellaria media, 504 h
Text: (§2) 1. Pre-Emergence Herbicidal Action and Crop Plant Compatibility Seeds of monocotyledonous and dicotyledonous weed plants and crop plants are placed in plastic or wood fiber pots and covered with soil. The compounds of the invention, formulated in the form of wettable powders (WP) or as emulsion concentrates (EC), are then applied onto the surface of the covering soil as aqueous suspension or emulsion with addition of 0.5% additive at a water application rate of 600 l/ha (converted). After the treatment, the pots are placed in a greenhouse and kept under good growth conditions for the trial plants. After about 3 weeks, the effect of the preparations is scored visually in comparison with untreated controls as percentages. For example, 100% activity=the plants have died, 0% activity=like control plants. STEME: Stellaria media VERPE: Veronica persica

Setaria viridis [2] = experiment: Post-emergence herbicidal activity against SETVI; conditions: Setaria viridis, 504 h, dosage 320 g/ha, rated about 3 weeks after treatment
Procedure, shortened: as §1

Pharbitis purpurea = experiment: Post-emergence herbicidal activity against PHBPU; conditions: dosage 320 g/ha, rated about 3 weeks after treatment; for pest or weed control at 320 g/ha: Ipomoea purpurea, 504 h
Procedure, shortened: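 Greenhouse-grown plants sprayed post-emergence at the one-leaf stage, 2 to 3 weeks after sowing, with WP or EC formulations plus 0.5% additive at 600 l/ha water. Activity rated visually after about 3 weeks versus untreated controls (100% = plants dead, 0% = like control).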

Stellaria media [3] = experiment: Post-emergence herbicidal activity against STEME; conditions: dosage 320 g/ha, rated about 3 weeks after treatment; for pest or weed control at 320 g/ha: Stellaria media, 504 h
Procedure, shortened: (§3)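 Greenhouse plants treated at one-leaf stage, 2–3 weeks after sowing, by spraying WP or EC formulations with 0.5% additive at 600 l/ha water. Visual rating about 3 weeks later versus untreated controls (100% = plants dead, 0% = like controls).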

Veronica persica = experiment: Post-emergence herbicidal activity against VERPE; conditions: dosage 320 g/ha; for pest or weed control at 320 g/ha: Veronica persica, 504 h
Procedure, shortened: as §3

Alopecurus myosuroides = experiment: Post-emergence herbicidal activity against ALOMY; conditions: dosage 320 g/ha, rated about 3 weeks after treatment; for pest or weed control at 320 g/ha: Alopecurus myosuroides, 504 h
Procedure, shortened: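 Greenhouse-grown plants treated at one-leaf stage, 2 to 3 weeks after sowing, with WP or EC formulations sprayed as aqueous suspension/emulsion plus 0.5% additive at 600 l/ha. Activity rated visually about 3 weeks later versus untreated controls (100% = plants dead, 0% = like control).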

Setaria viridis [4] = experiment: Pre-emergence herbicidal activity against SETVI; conditions: dosage 80 g/ha; for pest or weed control at 80 g/ha: Setaria viridis, 504 h
Text: as §2, with “POLCO: Polygonum convolvulus SETVI: Setaria viridis” for “STEME: Stellaria media VERPE: Veronica persica”

Hordeum murinum = experiment: Post-emergence herbicidal activity against HORMU; conditions: Hordeum murinum, 504 h, dosage 320 g/ha
Procedure, shortened: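 Greenhouse pot plants sprayed post-emergence at one-leaf stage (2-3 weeks after sowing) with WP or EC formulations, 0.5% additive, 600 l/ha water. Visual rating about 3 weeks later versus untreated controls: 100% = plants dead, 0% = like control.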

Row | SMILES | pest or weed control at 320 g/ha (Polygonum convolvulus) [%] | pest or weed control at 80 g/ha (Stellaria media [1]) [%] | pest or weed control at 320 g/ha (Setaria viridis [2]) [%] | pest or weed control at 320 g/ha (Pharbitis purpurea) [%] | pest or weed control at 320 g/ha (Stellaria media [3]) [%] | pest or weed control at 320 g/ha (Veronica persica) [%] | pest or weed control at 320 g/ha (Alopecurus myosuroides) [%] | pest or weed control at 80 g/ha (Setaria viridis [4]) [%] | pest or weed control at 320 g/ha (Hordeum murinum) [%] | Post-emergence herbicidal activity against POLCO in % (Polygonum convolvulus) [%] | Pre-emergence herbicidal activity against STEME in % (Stellaria media [1]) [%] | Pre-emergence herbicidal activity against SETVI in % (Setaria viridis [4]) [%] | Post-emergence herbicidal activity against PHBPU in % (Pharbitis purpurea) [%] | Post-emergence herbicidal activity against STEME in % (Stellaria media [3]) [%] | Post-emergence herbicidal activity against VERPE in % (Veronica persica) [%] | Post-emergence herbicidal activity against ALOMY in % (Alopecurus myosuroides) [%]
1 | COC(=O)[C@H]1C[C@@H](NC(=O)C2(C)CC(c3cc(F)cc(F)c3)=NO2)CO1 (relative stereo) [I-01, methyl cis-4-[[3-(3,5-difluorophenyl)-5-methyl-4H-isoxazole-5-carbonyl]amino]tetrahydrofuran-2-carboxylate] | 80 | 90 | 90 | 90 | 90 | 80 | 100 |  |  |  |  |  |  |  |  | 
2 | COC(=O)C1COCC1NC(=O)C1(OC)CC(c2cc(F)cc(F)c2)=NO1 (centres unmarked) [I-27, methyl 4-[[3-(3,5-difluorophenyl)-5-methoxy-4H-isoxazole-5-carbonyl]amino]tetrahydrofuran-3-carboxylate] | 80 | 90 | 80 | 80 | 80 | 80 | 90 |  |  |  |  |  |  |  |  | 
3 | COC(=O)C1COCC1NC(=O)C1(C)CC(c2cc(F)cc(F)c2)=NO1 (centres unmarked) [I-19, methyl 4-[[3-(3,5-difluorophenyl)-5-methyl-4H-isoxazole-5-carbonyl]amino]tetrahydrofuran-3-carboxylate] | 80 | 80 | 80 | 80 | 90 | 80 | 90 |  |  |  |  |  |  |  |  | 
4 | COC(=O)C1COCC1NC(=O)C1(OC)CC(c2cc(Cl)cc(Cl)c2)=NO1 (centres unmarked) [I-29, methyl 4-[[3-(3,5-dichlorophenyl)-5-methoxy-4H-isoxazole-5-carbonyl]amino]tetrahydrofuran-3-carboxylate] | 80 | 90 | 80 | 80 | 80 | 90 | 90 |  |  |  |  |  |  |  |  | 
5 | C=C[C@]1(C(=O)NC2COCC2C(=O)OC)CC(c2cc(F)cc(F)c2)=NO1 (stereo partly drawn) [I-26, methyl 4-[[(5S)-3-(3,5-difluorophenyl)-5-vinyl-4H-isoxazole-5-carbonyl]amino]tetrahydrofuran-3-carboxylate] |  | 100 | 80 | 80 | 90 | 90 | 90 | 100 |  |  |  |  |  |  |  | 
6 | C=CC1(C(=O)N[C@H]2CO[C@@H](C(=O)O)C2)CC(c2cc(F)cc(F)c2)=NO1 (relative stereo) [I-21, cis-4-[[3-(3,5-difluorophenyl)-5-vinyl-4H-isoxazole-5-carbonyl]amino]tetrahydrofuran-2-carboxylic acid] |  | 100 | 80 | 80 | 80 | 100 | 90 | 90 |  |  |  |  |  |  |  | 
7 | COC(=O)[C@@]1(OC)C[C@@H](NC(=O)C2(C)CC(c3cccc(F)c3)=NO2)CO1 (stereo partly drawn) [I-47, methyl (2R,4R)-4-[[3-(3-fluorophenyl)-5-methyl-4H-isoxazole-5-carbonyl]amino]-2-methoxytetrahydrofuran-2-carboxylate] | 80 |  | 80 | 90 | 90 | 80 | 100 |  | 100 |  |  |  |  |  |  | 
8 | COC(=O)C1COCC1NC(=O)[C@@]1(C)CC(c2cc(F)cc(F)c2)=NO1 (stereo partly drawn) [I-28, methyl 4-[[(5R)-3-(3,5-difluorophenyl)-5-methyl-4H-isoxazole-5-carbonyl]amino]tetrahydrofuran-3-carboxylate] | 80 | 100 | 80 | 80 | 80 | 90 | 90 |  |  |  |  |  |  |  |  | 
9 | C=C[C@]1(C(=O)N[C@H]2CO[C@@H](C(=O)OCc3ccccc3)C2)CC(c2cc(F)cc(F)c2)=NO1 (mixture of isomers) [I-37, benzyl cis-4-[[(5S)-3-(3,5-difluorophenyl)-5-vinyl-4H-isoxazole-5-carbonyl]amino]tetrahydrofuran-2-carboxylate] |  | 100 | 80 | 90 | 90 | 80 |  | 100 | 80 |  |  |  |  |  |  | 
10 | COC(=O)[C@H]1C[C@H](NC(=O)[C@@]2(C)CC(c3cc(F)cc(F)c3)=NO2)CO1 (mixture of isomers) [I-55, methyl trans-4-[[(5R)-3-(3,5-difluorophenyl)-5-methyl-4H-isoxazole-5-carbonyl]amino]tetrahydrofuran-2-carboxylate] | 90 |  | 90 | 90 | 90 | 90 | 90 |  | 100 |  |  |  |  |  |  | 
11 | COC(=O)[C@H]1C[C@@H](NC(=O)[C@@]2(C)CC(c3cc(F)cc(F)c3)=NO2)CO1 (mixture of isomers) [I-09, methyl cis-4-[[(5R)-3-(3,5-difluorophenyl)-5-methyl-4H-isoxazole-5-carbonyl]amino]tetrahydrofuran-2-carboxylate] | 80 |  | 80 | 90 | 90 | 80 | 90 | 80 |  |  |  |  |  |  |  | 
12 | COC(=O)C1=C[C@H](NC(=O)C2(C)CC(c3cccc(F)c3)=NO2)CO1 (stereo partly drawn) [I-39, methyl (3S)-3-[[3-(3-fluorophenyl)-5-methyl-4H-isoxazole-5-carbonyl]amino]-2,3-dihydrofuran-5-carboxylate] | 80 |  | 90 | 90 | 90 | 80 | 100 |  | 100 |  |  |  |  |  |  | 
13 | COC(=O)C1CC(NC(=O)C2(C(C)(F)F)CC(c3cc(F)cc(F)c3)=NO2)CO1 (centres unmarked) [I-49] |  |  |  |  |  |  |  |  |  | 80 | 100 | 100 | 80 | 90 | 80 | 90
14 | COC(=O)[C@H]1C[C@@H](NC(=O)C2(OC)CC(c3cc(F)cc(F)c3)=NO2)CO1 (relative stereo) [I-05, methyl cis-4-[[3-(3,5-difluorophenyl)-5-methoxy-4H-isoxazole-5-carbonyl]amino]tetrahydrofuran-2-carboxylate] | 90 |  | 90 | 90 | 90 | 80 | 90 | 90 |  |  |  |  |  |  |  | 
